{"source": "patent US20240293413A1", "about": "“COMPOUND AND METHOD FOR TREATING CHEMOTHERAPY-RELATED GASTROINTESTINAL SIDE EFFECTS” (ONQUALITY PHARMACEUTICALS CHINA LTD., priority 2021, published 2024)", "type_in_all_cases": "in vivo", "key": {"[1]": {"tested_on": "Chemotherapeutic agent-caused diarrhea models of Balb/c mice", "assay": "Examples 1-229 (Table 3): oral CDK inhibitor, relief of diarrhea caused by a chemotherapeutic agent;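 also: percent of treated mice whose diarrhea grade fell below chemotherapy-group average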", "description": "Construction of mouse animal models: Chemotherapeutic agent-caused diarrhea models of Balb/c mice were constructed according to the administration mode and frequency of the chemotherapeutic agent as shown in Table 3.\nBalb/c mice were fed for 1 week, and then divided into groups. The experiment was divided into a control group, a chemotherapeutic agent group, and a CDK inhibitor group, each of which comprised 10 mice, to perform the administration experiment, for which the administration dosage, mode, time and frequency were shown in Table 3. The control group: being intragastrically administered with the same solvent as that used in the CDK inhibitor group (the time was shown in Table 3), and then being injected/intragastrically administered with the same solvent as that used in the chemotherapeutic agent group (the administration mode was shown in Table 3): the chemotherapeutic agent group: being intragastrically administered with the same solvent as that used in the CDK inhibitor group (the time was shown in Table 3), and then being injected/intragastrically administered with the chemotherapeutic agent (the type, administration mode and dosage were shown in Table 3); the CDK inhibitor group: being intragastrically administered with the CDK inhibitor (the time was shown in Table 3), and then being administered with the chemotherapeutic agent (the mode and dosage were shown in Table 3).\n(§1) The diarrhea grading of mice was observed and recorded every day."}, "[2]": {"tested_on": "Chemotherapeutic agent-caused constipation models of Balb/c mice", "assay": "Examples 272-342 (Table 5): oral CDK inhibitor, relief of constipation caused by a chemotherapeutic agent", "details": "cycle 8 days", "description": "Construction of mouse animal models: Chemotherapeutic agent-caused constipation models of Balb/c mice were constructed according to the administration mode and frequency of the chemotherapeutic agent as shown in Table 5.\nBalb/c mice were fed for 1 week, and then divided into groups. The experiment was divided into a control group, a chemotherapeutic agent group, and a CDK inhibitor group, each of which comprised 10 mice, to perform the administration experiment, for which the administration dosage, mode, time and frequency were shown in Table 5. The control group: being intragastrically administered with the same solvent as that used in the CDK inhibitor group (the time was shown in Table 5), and then being injected/intragastrically administered with the same solvent as that used in the chemotherapeutic agent group (the administration mode was shown in Table 5): the chemotherapeutic agent group: being intragastrically administered with the same solvent as that used in the CDK inhibitor group (the time was shown in […]), and then being injected/intragastrically administered with the chemotherapeutic agent (the type, administration mode and dosage were shown in Table 5): the CDK inhibitor group: being intragastrically administered with the CDK inhibitor (the time was shown in Table 5), and then being administered with the chemotherapeutic agent (the mode and dosage were shown in Table 5).\nFeces reduction rate (%)=(the control group−the chemotherapeutic agent group or the CDK inhibitor group)/the control group*100%\nThe feces amount of mice within 3 hours was observed and recorded every day."}, "[3]": {"tested_on": "diarrhea caused by a chemotherapeutic agent in Balb/c mice", "assay": "Examples 343-381 (Table 6): oral versus intravenous CDK inhibitor, relief of diarrhea caused by a chemotherapeutic agent", "details": "for Relative remission rate: Example 369, Topotecan (TP) intramuscular injection 10 mg/kg single, 12 h before, cycle 10 days", "description": "Balb/c mice were fed for 1 week, and then divided into groups. The experiment was divided into a control group, a chemotherapeutic agent group, and an oral administration group of a CDK inhibitor, and an intravenous injection group of a CDK inhibitor, each of which comprised 10 mice, to perform the administration experiment, for which the administration dosage, mode, time and frequency were shown in Table 6. The control group: being injected/intragastrically administered with the same solvent as that used in the CDK inhibitor group (the time was shown in Table 6), and then being injected/intragastrically administered with the same solvent as that used in the chemotherapeutic agent group (the administration mode was shown in Table 6): the chemotherapeutic agent group: being injected/intragastrically administered with the same solvent as that used in the CDK inhibitor group (the time was shown in Table 6), and then being injected/intragastrically administered with the chemotherapeutic agent (the type, administration mode and dosage were shown in Table 6): the oral administration group of the CDK inhibitor: being intragastrically administered with the CDK inhibitor (the time was shown in Table 6), and then being administered with the chemotherapeutic agent (the mode and dosage were shown in Table 6): the intravenous injection group of the CDK inhibitor: being injected with the CDK inhibitor through tail vein (the time was shown in Table 6), and then being administered with the chemotherapeutic agent (the mode and dosage were shown in Table 6).\nas §1"}}}
{"compound": "CN[C@@H]1C[C@H]2O[C@@](C)([C@@H]1OC)n1c3ccccc3c3c4c(c5c6ccccc6n2c5c31)C(=O)N[C@H]4O", "note": "[KRX-0601]", "values": [{"measurement": "Relative remission rate (%)", "setting": "[1]; Example 165, Docetaxel (DTX) oral administration 30 mg/kg single, CDK inhibitor oral 250 mg/kg single 3 h before, cycle 8 days", "result": 10, "unit": "%"}, {"measurement": "Relative remission rate", "setting": "[2]; Example 334, Cytarabine (Ara-C) intramuscular injection 600 mg/kg single, CDK inhibitor oral 40 mg/kg single, 12 h before", "result": 10, "unit": "%"}, {"measurement": "Relative remission rate", "setting": "[3]; CDK inhibitor intravenous injection 250 mg/kg single", "result": 10, "unit": "%"}, {"measurement": "Relative remission rate", "setting": "[3]; CDK inhibitor oral 250 mg/kg single", "result": 20, "unit": "%"}, {"measurement": "relief of diarrhea by oral administration and injection administration", "setting": "[3]; diarrhea caused by etoposide, etoposide in combination with cisplatin, carboplatin, gemcitabine, gemcitabine in combination with carboplatin, and topotecan, oral administration has the most significant effect", "result": "effectively relieve diarrhea"}]}
{"compound": "CNC(=O)c1nn(C)c2c1C(C)(C)Cc1cnc(Nc3ccc(N4CCN(C)CC4)cc3)nc1-2", "note": "[Milciclib]", "values": [{"measurement": "Relative remission rate (%)", "setting": "[1]; Example 194, Gemcitabine 60 mg/kg and paclitaxel 10 mg/kg intraperitoneal injection single, CDK inhibitor oral 60 mg/kg single, 2 h before, 8 days", "result": 40, "unit": "%"}, {"measurement": "Relative remission rate", "setting": "[2]; Example 315, Docetaxel (DTX) intraperitoneal injection 15 mg/kg single, CDK inhibitor oral 60 mg/kg single, 0.5 h before", "result": 30, "unit": "%"}, {"measurement": "Relative remission rate", "setting": "[2]; Example 316, Docetaxel (DTX) intraperitoneal injection 15 mg/kg single, CDK inhibitor oral 60 mg/kg single, 4 h before", "result": 20, "unit": "%"}, {"measurement": "Relative remission rate", "setting": "[2]; Example 317, Docetaxel (DTX) intraperitoneal injection 15 mg/kg single, CDK inhibitor oral 60 mg/kg single, 8 h before", "result": 20, "unit": "%"}, {"measurement": "Relative remission rate", "setting": "[2]; Example 318, Docetaxel (DTX) intraperitoneal injection 15 mg/kg single, CDK inhibitor oral 60 mg/kg single, 12 h before", "result": 30, "unit": "%"}, {"measurement": "Relative remission rate", "setting": "[2]; Example 319, Docetaxel (DTX) intraperitoneal injection 15 mg/kg single, CDK inhibitor oral 60 mg/kg single, 24 h before", "result": 10, "unit": "%"}, {"measurement": "Relative remission rate", "setting": "[2]; Example 320, Docetaxel (DTX) intraperitoneal injection 15 mg/kg single, CDK inhibitor oral 60 mg/kg single, 48 h before", "result": 0, "unit": "%"}]}
{"compound": "CC(=O)Nc1ccc([C@H](C)C(=O)Nc2ncc(C(C)C)s2)cc1", "note": "[PHA-690509]", "values": [{"measurement": "Relative remission rate (%)", "setting": "[1]; Example 123, Irinotecan (CPT-11) intraperitoneal injection 240 mg/kg single, CDK inhibitor oral 60 mg/kg single 12 h before, cycle 7 days", "result": 40, "unit": "%"}]}
{"compound": "CC(C)CC(=O)Nc1[nH]nc2c1CN(C(=O)C1CCN(C)CC1)C2(C)C", "note": "[PHA-793887]", "values": [{"measurement": "Relative remission rate (%)", "setting": "[1]; Example 160, Docetaxel (DTX) intraperitoneal injection 10 mg/kg single, CDK inhibitor oral 70 mg/kg single 4 h before, cycle 8 days", "result": 30, "unit": "%"}]}
{"compound": "COCCN1CCN(Cc2ccc(-c3n[nH]c4c3C(=O)c3c(NC(=O)NN5CCOCC5)cccc3-4)cc2)CC1", "note": "[RGB-286638]", "values": [{"measurement": "Relative remission rate (%)", "setting": "[1]; Example 124, Irinotecan (CPT-11) intraperitoneal injection 240 mg/kg single, CDK inhibitor oral 100 mg/kg single 12 h before, cycle 7 days", "result": 60, "unit": "%"}, {"measurement": "Relative remission rate (%)", "setting": "[1]; Example 130, Irinotecan (CPT-11) intravenous injection 200 mg/kg single, CDK inhibitor oral 100 mg/kg single 8 h before, cycle 7 days", "result": 50, "unit": "%"}]}
{"compound": "COc1ccc(F)c(F)c1C(=O)c1cnc(NC2CCN(S(C)(=O)=O)CC2)nc1N", "note": "[RO4584820]", "values": [{"measurement": "Relative remission rate (%)", "setting": "[1]; Example 218, Fluorouracil 100 mg/kg and irinotecan 200 mg/kg intravenous injection single, CDK inhibitor oral 70 mg/kg single, 4 h before, 10 days", "result": 50, "unit": "%"}]}
{"compound": "COc1cc(OC)c(/C=C/S(=O)(=O)Cc2ccc(OC)c(NCC(=O)O)c2)c(OC)c1", "note": "[Rigosertib]", "values": [{"measurement": "Relative remission rate (%)", "setting": "[1]; Example 116, Irinotecan (CPT-11) intraperitoneal injection 240 mg/kg single, CDK inhibitor oral 250 mg/kg single 4 h before, cycle 7 days", "result": 20, "unit": "%"}, {"measurement": "Relative remission rate (%)", "setting": "[1]; Example 189, Gemcitabine (GEM) intraperitoneal injection 120 mg/kg single, CDK inhibitor oral 250 mg/kg single, 6 h before, 8 days", "result": 30, "unit": "%"}, {"measurement": "Relative remission rate (%)", "setting": "[1]; Example 214, Fluorouracil 100 mg/kg and irinotecan 200 mg/kg intravenous injection single, CDK inhibitor oral 250 mg/kg single, 2 h before, 10 days", "result": 20, "unit": "%"}]}
{"compound": "Cc1c(Br)c(Br)c2c3c1nc(N1CCNCC1)n3CCC2", "note": "[SEL120]", "values": [{"measurement": "Relative remission rate (%)", "setting": "[1]; Example 75, Oxaliplatin intraperitoneal injection 20 mg/kg single, CDK inhibitor oral 80 mg/kg single 8 h before, cycle 8 days", "result": 40, "unit": "%"}, {"measurement": "Relative remission rate (%)", "setting": "[1]; Example 120, Irinotecan (CPT-11) intraperitoneal injection 240 mg/kg single, CDK inhibitor oral 80 mg/kg single 8 h before, cycle 7 days", "result": 40, "unit": "%"}]}
{"compound": "CN1CC[C@H](c2c(OP(=O)(O)O)cc(O)c3c(=O)cc(-c4ccccc4Cl)oc23)[C@H](O)C1", "note": "[TP-1287]", "values": [{"measurement": "Relative remission rate (%)", "setting": "[1]; Example 37, Fluorouracil (5-Fu) intraperitoneal injection 125 mg/kg single, CDK inhibitor oral 10 mg/kg single 10 h before, cycle 10 days", "result": 40, "unit": "%"}]}
{"compound": "CC(C)c1c2cc(-c3nc(Nc4ccc(N5CCNCC5)cn4)ncc3F)ccc2nn1C", "note": "[TQB-3616]", "values": [{"measurement": "Relative remission rate (%)", "setting": "[1]; Example 32, Fluorouracil (5-Fu) intraperitoneal injection 125 mg/kg single, CDK inhibitor oral 70 mg/kg single 4 h before, cycle 10 days", "result": 30, "unit": "%"}, {"measurement": "Relative remission rate (%)", "setting": "[1]; Example 148, Docetaxel (DTX) intraperitoneal injection 10 mg/kg single, CDK inhibitor oral 70 mg/kg single 4 h before, cycle 8 days", "result": 50, "unit": "%"}, {"measurement": "Relative remission rate (%)", "setting": "[1]; Example 197, Gemcitabine 60 mg/kg and paclitaxel 10 mg/kg intravenous injection single, CDK inhibitor oral 70 mg/kg single, 4 h before, 8 days", "result": 60, "unit": "%"}, {"measurement": "Relative remission rate (%)", "setting": "[1]; Example 220, Fluorouracil 100 mg/kg and oxaliplatin 10 mg/kg intraperitoneal injection single, CDK inhibitor oral 70 mg/kg single, 6 h before, 10 days", "result": 60, "unit": "%"}]}
{"compound": "CN1CC[C@@H](c2c(O)cc(O)c3c(=O)cc(-c4ccc(C(F)(F)F)cc4Cl)oc23)[C@@H]1CO", "note": "[Voruciclib]", "values": [{"measurement": "Relative remission rate (%)", "setting": "[1]; Example 76, Oxaliplatin intraperitoneal injection 20 mg/kg single, CDK inhibitor oral 250 mg/kg single 4 h before, cycle 8 days", "result": 70, "unit": "%"}, {"measurement": "Relative remission rate (%)", "setting": "[1]; Example 203, Gemcitabine 60 mg/kg and paclitaxel 10 mg/kg intravenous injection single, CDK inhibitor oral 250 mg/kg single, 8 h before, 8 days", "result": 80, "unit": "%"}]}
{"compound": "CN1C/C=C/CCOc2cccc(c2)-c2ccnc(n2)Nc2cccc(c2)C1", "note": "[Zotiraciclib]", "values": [{"measurement": "Relative remission rate (%)", "setting": "[1]; Example 33, Fluorouracil (5-Fu) intraperitoneal injection 125 mg/kg single, CDK inhibitor oral 100 mg/kg single 4 h before, cycle 10 days", "result": 20, "unit": "%"}, {"measurement": "Relative remission rate (%)", "setting": "[1]; Example 152, Docetaxel (DTX) intraperitoneal injection 10 mg/kg single, CDK inhibitor oral 100 mg/kg single 8 h before, cycle 8 days", "result": 30, "unit": "%"}]}
{"compound": "FN-1501", "values": [{"measurement": "Relative remission rate (%)", "setting": "[1]; Example 36, Fluorouracil (5-Fu) intraperitoneal injection 125 mg/kg single, CDK inhibitor oral 200 mg/kg single 6 h before, cycle 10 days", "result": 60, "unit": "%"}, {"measurement": "Relative remission rate (%)", "setting": "[1]; Example 156, Docetaxel (DTX) intraperitoneal injection 10 mg/kg single, CDK inhibitor oral 200 mg/kg single 10 h before, cycle 8 days", "result": 60, "unit": "%"}, {"measurement": "Relative remission rate (%)", "setting": "[1]; Example 169, Docetaxel (DTX) intravenous injection 10 mg/kg single, CDK inhibitor oral 200 mg/kg single 8 h before, cycle 8 days", "result": 50, "unit": "%"}]}
